pIC50: −log10 of the molar value.
system: episomal HPV16 DNA in W12-20850 cells; test: W-12 cellular assay (episomal HPV-16 DNA, hybrid capture); type: cell-based, HPV16 (human papillomavirus); conditions: Human papillomavirus 16, 96 h, four days incubation, episomal HPV-16 DNA quantified by hybrid capture, inhibition relative to untreated control cells
Procedure: Compounds of the current invention are believed useful in the treatment and/or prophylaxis of conditions and diseases associated with HPV infection. Activity mediated through HPV was determined using the following W-12 cellular assay.
The W12 cell line used contains HPV16 DNA and was derived from a low-grade cervical dysplasia tissue by Margaret Stanley and subsequently clonally selected by Paul Lambert (University of Wisconsin). One of these clones, W12-20850, contains 1000 copies of episomal HPV16 DNA and was used in the cell-based assay. W12-20850 cells were routinely cultured with a gamma-irradiated (6000 rads) feeder layer of 3T3 cells. Assays, however, were run in the absence of a 3T3 feeder layer. W12-20850 and 3T3 cells were routinely split when they were sub-confluent. W12-20850 were grown in W12 Medium which is constituted of 25% DMEM (Gibco BRL, Cat # 12430-047), 75% F12 Media (Gibco BRL, Cat # 11765-021) and 2.5% FBS. The additives include […] Adenine (Sigma, Cat # A-9795), 0.4 mg/ml Hydrocortisone (Calbiochem, Cat # 386698), […] Bovine Insulin (Sigma, Cat # I-1882), 8.4 ng/ml cholera toxin (Fluka, Cat # 26694) and 10 ng/ml EGF (Invitrogen, Cat # 13247-051). 3T3 cells were grown in DMEM containing 10% FBS. Cell lines were incubated at 37° C., in the presence of 5% CO2.
For the assay, W12-20850 cells were seeded into a 96 well plate-containing compound. Plates were incubated at 37° C. in the presence of 5% CO2, for four days. On the fourth day, cells were lysed and the amount of episomal HPV-16 DNA was quantified using a non-radioactive hybrid capture technique with HPV-16 specific capture and detection probes. The percent inhibition relative to untreated control cells was then determined.
The hybrid capture assay is run in a 96 well plate format. Hybridization plates (Nunc Maxisorb Cat # 450320) were coated with a mixture of capture probe and ReactiBind solution for at least 4 hours and then washed with 0.2)(SSC, 0.05% Tween20 (SSCT) prior to blocking with 150 μl/well of 0.2 N NaOH, 1% Igepal, 10 mg/ml hsDNA for 6-8 hours. The hybridization was carried out by mixing 271 μl of lysed cells with 45 μl of denatured detection probe in 6M guanidine isothiocyanate. To prevent evaporation, 50 μl of mineral oil was added to each well. The plate was then heated to 90° C. for 6.5 minutes and the hybridization continued at 42° C. overnight. Assay plates were washed 6 times with SSC/T. Anti-digoxigenin HRP-conjugated Ab (Boehringer Mannheim 1207733, 1:5000) was incubated in the wells for 30 min at room temperature and washed with PBS/0.05% Tween-20. SuperSignal LBA substrate (Pierce Cat # 37070) was added, and chemiluminescence was measured using Wallac 1420 Victor plate reader.

Row | Compound | pIC50
1 | O=C(Nc1ccccc1)NC1CCCc2c1[nH]c1ccc(Br)cc21 (centres unmarked) [Example 9, N-(6-Bromo-2,3,4,9-tetrahydro-1H-carbazol-1-yl)-N′-phenylurea] | 6.26
2 | COc1ccc(NC(=O)NC2CCCc3c2[nH]c2ccc(Br)cc32)cc1 (centres unmarked) [Example 10, N-(6-Bromo-2,3,4,9-tetrahydro-1H-carbazol-1-yl)-N′-(4-methoxyphenyl)urea] | 4.62
3 | COc1ccc(NC(=O)NC2CCCc3c2[nH]c2ccc(Br)cc32)c(C)c1 (centres unmarked) [Example 11, N-(6-Bromo-2,3,4,9-tetrahydro-1H-carbazol-1-yl)-N′-(4-methoxy-2-methylphenyl)urea] | < 6.00
4 | COc1ccc(NC(=O)NC2CCCc3c2[nH]c2ccc(Br)cc32)cc1Cl (centres unmarked) [Example 12, N-(6-Bromo-2,3,4,9-tetrahydro-1H-carbazol-1-yl)-N′-(3-chloro-4-methoxyphenyl)urea] | < 5.00
5 | CN(C)c1ccc(NC(=O)NC2CCCc3c2[nH]c2ccc(Br)cc32)cc1 (centres unmarked) [Example 13, N-(6-Bromo-2,3,4,9-tetrahydro-1H-carbazol-1-yl)-N′-[4-(dimethylamino)phenyl]urea] | 6.63
6 | O=C(N[C@H]1CCCc2c1[nH]c1ccc(Br)cc21)c1ccccc1 [Example 14C, N-[(1S)-6-bromo-2,3,4,9-tetrahydro-1H-carbazol-1-yl]benzamide] | 5.30
7 | O=C(Cc1ccccc1)NC1CCCc2c1[nH]c1ccc(Br)cc21 (centres unmarked) [Example 15, N-(6-Bromo-2,3,4,9-tetrahydro-1H-carbazol-1-yl)-2-phenylacetamide] | 6.24
8 | O=C(CCc1ccccc1)NC1CCCc2c1[nH]c1ccc(Br)cc21 (centres unmarked) [Example 16, N-(6-Bromo-2,3,4,9-tetrahydro-1H-carbazol-1-yl)-3-phenylpropanamide] | 5.92
9 | O=C(/C=C/c1ccccc1)NC1CCCc2c1[nH]c1ccc(Br)cc21 (centres unmarked) [Example 17, N-(6-Bromo-2,3,4,9-tetrahydro-1H-carbazol-1-yl)-3-phenylprop-2-enamide] | 6.50
10 | O=C(NC1CCCc2c1[nH]c1ccc(Br)cc21)OCc1ccccc1 (centres unmarked) [Example 18, Benzyl 6-bromo-2,3,4,9-tetrahydro-1H-carbazol-1-ylcarbamate] | 7.36
11 | O=C(NC1CCCc2c1[nH]c1ccc(Br)cc21)c1c(Cl)cccc1Cl (centres unmarked) [Example 19, N-(6-Bromo-2,3,4,9-tetrahydro-1H-carbazol-1-yl)-2,6-dichlorobenzamide] | 5.24
12 | O=C(NC1CCCc2c1[nH]c1ccc(Br)cc21)c1ccc([N+](=O)[O-])cc1 (centres unmarked) [Example 22, N-(6-Bromo-2,3,4,9-tetrahydro-1H-carbazol-1-yl)-4-nitrobenzamide] | 7.35
13 | O=C(NC1CCCc2c1[nH]c1ccc(Br)cc21)c1ccc(C(F)(F)F)cc1 (centres unmarked) [Example 25, N-(6-Bromo-2,3,4,9-tetrahydro-1H-carbazol-1-yl)-4-(trifluoromethyl)benzamide] | 7.24
14 | COc1ccccc1C(=O)NC1CCCc2c1[nH]c1ccc(Br)cc21 (centres unmarked) [Example 30, N-(6-Bromo-2,3,4,9-tetrahydro-1H-carbazol-1-yl)-2-methoxybenzamide] | < 5.00
15 | O=C(NC1CCCc2c1[nH]c1ccc(Br)cc21)c1ccccc1[N+](=O)[O-] (centres unmarked) [Example 31, N-(6-Bromo-2,3,4,9-tetrahydro-1H-carbazol-1-yl)-2-nitrobenzamide] | < 5.14
16 | O=C(NC1CCCc2c1[nH]c1ccc(Br)cc21)c1ccccc1Cl (centres unmarked) [Example 32, N-(6-Bromo-2,3,4,9-tetrahydro-1H-carbazol-1-yl)-2-chlorobenzamide] | 5.85
17 | Cc1ccccc1C(=O)NC1CCCc2c1[nH]c1ccc(Br)cc21 (centres unmarked) [Example 33, N-(6-Bromo-2,3,4,9-tetrahydro-1H-carbazol-1-yl)-2-methylbenzamide] | 6.30
18 | O=C(NC1CCCc2c1[nH]c1ccccc21)c1ccccc1 (centres unmarked) [Example 34, N-(2,3,4,9-Tetrahydro-1H-carbazol-1-yl)benzamide] | < 5.00
19 | Cc1ccc2[nH]c3c(c2c1)CCCC3NC(=O)c1ccccc1 (centres unmarked) [Example 35, N-(6-Methyl-2,3,4,9-tetrahydro-1H-carbazol-1-yl)benzamide] | 6.74
20 | O=C(NC1CCCc2c1[nH]c1ccc(Cl)cc21)c1ccccc1 (centres unmarked) [Example 36A, N-(6-Chloro-2,3,4,9-tetrahydro-1H-carbazol-1-yl)benzamide] | 7.22
21 | O=C(N[C@H]1CCCc2c1[nH]c1ccc(Cl)cc21)c1ccccc1 [Example 36C, N-[(1S)-6-chloro-2,3,4,9-tetrahydro-1H-carbazol-1-yl]benzamide] | < 5.00
22 | O=C(NC1CCCc2c1[nH]c1ccc(Br)cc21)c1cccnc1 (centres unmarked) [Example 39, N-(6-Bromo-2,3,4,9-tetrahydro-1H-carbazol-1-yl)nicotinamide] | 6.89
23 | O=C(NC1CCCc2c1[nH]c1ccc(Br)cc21)c1ccncc1 (centres unmarked) [Example 41, N-(6-Bromo-2,3,4,9-tetrahydro-1H-carbazol-1-yl)isonicotinamide] | 6.74
24 | O=C(Nc1ccccc1)NC1CCCc2c1[nH]c1ccccc21 (centres unmarked) [Example 42, N-Phenyl-N′-(2,3,4,9-tetrahydro-1H-carbazol-1-yl)urea] | < 5.00

Stronger by pIC50, values ahead:

Row | pIC50 | Compound
25 | 7.49 | O=C(NC1CCCc2c1[nH]c1ccc(Br)cc21)c1ccccc1 (centres unmarked) [Example 14A, N-(6-Bromo-2,3,4,9-tetrahydro-1H-carbazol-1-yl)benzamide]
26 | 8.00 | O=C(N[C@@H]1CCCc2c1[nH]c1ccc(Br)cc21)c1ccccc1 [Example 14B, N-[(1R)-6-bromo-2,3,4,9-tetrahydro-1H-carbazol-1-yl]benzamide]
27 | 7.70 | O=C(NC1CCCc2c1[nH]c1ccc(Br)cc21)c1ccc(F)cc1 (centres unmarked) [Example 20, N-(6-Bromo-2,3,4,9-tetrahydro-1H-carbazol-1-yl)-4-fluorobenzamide]
28 | 7.66 | COc1ccc(C(=O)NC2CCCc3c2[nH]c2ccc(Br)cc32)cc1 (centres unmarked) [Example 21, N-(6-Bromo-2,3,4,9-tetra hydro-1H-carbazol-1-yl)-4-methoxybenzamide]
29 | 7.77 | O=C(NC1CCCc2c1[nH]c1ccc(Br)cc21)c1ccc(Cl)cc1 (centres unmarked) [Example 23, N-(6-Bromo-2,3,4,9-tetrahydro-1H-carbazol-1-yl)4-chlorobenzamide]
30 | 8.10 | Cc1ccc(C(=O)NC2CCCc3c2[nH]c2ccc(Br)cc32)cc1 (centres unmarked) [Example 24, N-(6-Bromo-2,3,4,9-tetrahydro-1H-carbazol-1-yl)-4-methylbenzamide]
31 | 7.85 | O=C(NC1CCCc2c1[nH]c1ccc(Br)cc21)c1cccc(F)c1 (centres unmarked) [Example 26, N-(6-Bromo-2,3,4,9-tetrahydro-1H-carbazol-1-yl)-3-fluorobenzamide]
32 | 7.55 | COc1cccc(C(=O)NC2CCCc3c2[nH]c2ccc(Br)cc32)c1 (centres unmarked) [Example 27, N-(6-Bromo-2,3,4,9-tetrahydro-1H-carbazol-1-yl)-3-methoxybenzamide]
33 | 7.64 | Cc1cccc(C(=O)NC2CCCc3c2[nH]c2ccc(Br)cc32)c1 (centres unmarked) [Example 28, N-(6-Bromo-2,3,4,9-tetrahydro-1H-carbazol-1-yl)-3-methylbenzamide]
34 | 8.05 | O=C(NC1CCCc2c1[nH]c1ccc(Br)cc21)c1ccccc1F (centres unmarked) [Example 29, N-(6-Bromo-2,3,4,9-tetrahydro-1H-carbazol-1-yl)-2-fluorobenzamide]
35 | 7.70 | O=C(N[C@@H]1CCCc2c1[nH]c1ccc(Cl)cc21)c1ccccc1 [Example 36B, N-[(1R)-6-chloro-2,3,4,9-tetrahydro-1H-carbazol-1-yl]benzamide]
36 | 7.62 | Cc1ccc(S(=O)(=O)NC2CCCc3c2[nH]c2ccc(Br)cc32)cc1 (centres unmarked) [Example 37, N-(6-Bromo-2,3,4,9-tetrahydro-1H-carbazol-1-yl)-4-methylbenzenesulfonamide]
37 | > 8.00 | O=C(NC1CCCc2c1[nH]c1ccc(Br)cc21)c1ccccn1 (centres unmarked) [Example 38, N-(6-Bromo-2,3,4,9-tetrahydro-1H-carbazol-1-yl)pyridine-2-carboxamide]
38 | 7.62 | O=C(NC1CCCc2c1[nH]c1ccc(Br)cc21)c1ccc(Cl)nc1 (centres unmarked) [Example 40, N-(6-Bromo-2,3,4,9-tetrahydro-1H-carbazol-1-yl)-6-chloronicotinamide]
